In patent US11414406B2, “Antagonists of the muscarinic acetylcholine receptor M4” (Vanderbilt University, priority 2018, dated 2022):

Columns and labels:
Human M4 = target: T1, Human M4 (Homo sapiens, UniProt P08173); test: mAChR M4 cell-based functional assay (calcium flux, decrease of EC80 acetylcholine response); details: M4/Gqi5/CHO-K1 cells; for remaining activity at 30 µM: % ACh maximum at 30 μM, read-out: Emin (% ACh maximum at 30 μM); for IC50: decrease of response to EC80 acetylcholine
T1 construct: expressed in transfected cells
T1 sequence (P08173 1-479): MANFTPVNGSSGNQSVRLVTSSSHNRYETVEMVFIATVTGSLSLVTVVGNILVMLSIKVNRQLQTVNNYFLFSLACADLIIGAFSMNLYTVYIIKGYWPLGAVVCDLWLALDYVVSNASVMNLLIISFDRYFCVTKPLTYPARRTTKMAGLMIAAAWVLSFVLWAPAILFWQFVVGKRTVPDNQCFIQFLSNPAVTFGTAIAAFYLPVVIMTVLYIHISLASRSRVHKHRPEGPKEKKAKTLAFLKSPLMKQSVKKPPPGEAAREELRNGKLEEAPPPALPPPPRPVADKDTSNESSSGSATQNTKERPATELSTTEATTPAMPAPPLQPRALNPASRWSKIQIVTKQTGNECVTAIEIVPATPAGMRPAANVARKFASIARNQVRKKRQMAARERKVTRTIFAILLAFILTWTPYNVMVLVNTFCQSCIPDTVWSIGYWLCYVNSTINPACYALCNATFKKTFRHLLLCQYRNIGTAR
Experimental: Human M4 cDNA, along with the chimeric G protein Gqi5, were transfected into Chinese hamster ovary (CHO-K1) cells purchased from the American Type Culture Collection using Lipofectamine2000. M4/Gqi5/CHO cells were grown in Ham's F-12 medium containing 10% heat-inactivated fetal bovine serum (FBS), 20 mM HEPES, 500 μg/mL G418 sulfate, and 200 μg/mL Hygromycin B.
For high throughput measurement of agonist-evoked increases in intracellular calcium, CHO-K1 cells stably expressing muscarinic receptors were plated in growth medium lacking G418 and hygromycin at 15,000 cells/20 μL/well in Greiner 384-well black-walled, tissue culture (TC)-treated, clear-bottom plates (VWR). Cells were incubated overnight at 37° C. and 5% CO2. The next day, cells were washed using an ELX 405 (BioTek) with assay buffer; the final volume was then aspirated to 20 μL. Next, 20 μL of a 2.3 μM stock of Fluo-4/acetoxymethyl ester (Invitrogen, Carlsbad, Calif.), prepared as a 2.3 mM stock in DMSO and mixed in a 1:1 ratio with 10% (w/v) Pluronic F-127 and diluted in assay buffer, was added to the wells and the cell plates were incubated for 50 min at 37° C. and 5% CO2. Dye was removed by washing with the ELX 405 and the final volume was aspirated to 20 μL. Compound master plates were formatted in a 10 point concentration-response curve (CRC) format (1:3 dilutions) in 100% DMSO with a starting concentration of 10 or 1 mM using a BRAVO liquid handler (Agilent). Test compound CRCs were then transferred to daughter plates (240 nL) using the Echo acoustic plate reformatter (Labcyte, Sunnyvale, Calif.) and then diluted into assay buffer (40 μL) to a 2× stock using a Thermo Fisher Combi (Thermo Fisher Scientific, Waltham, Mass.).
Calcium flux was measured using the Functional Drug Screening System (FDSS) 6000 or 7000 (Hamamatsu Corporation, Tokyo, Japan) as an increase in the fluorescent static ratio. Compounds were applied to cells (20 μL, 2×) using the automated system of the FDSS at 2 seconds into the protocol and the data were collected at 1 Hz. At 143 s, 10 μL of an EC20 concentration of the muscarinic receptor agonist acetylcholine was added (5×), followed by the addition of 12 μL of an EC80 concentration of acetylcholine at the 268 s time point (5×). Agonist activity was analyzed as a concentration-dependent increase in calcium mobilization upon compound addition. Positive allosteric modulator activity was analyzed as a concentration-dependent increase in the EC20 acetylcholine response. Antagonist activity was analyzed as a concentration-dependent decrease in the EC80 acetylcholine response; for the purposes of the tables herein, an IC50 (inhibitory concentration 50) was calculated as a concentration-dependent decrease of the response elicited by an EC80 concentration of acetylcholine. Concentration-response curves were generated using a four-parameter logistical equation in XLFit curve fitting software (HMS, Bridgewater, N.J.) for Excel (Microsoft, Redmond, Wash.) or Prism (GraphPad Software, Inc., San Diego, Calif.) or the Dotmatics software platform (Dotmatics, Bishop's Stortford, UK).
Compounds were synthesized as described above. Activity (IC50 and Emin) was determined in the inAChR M4 cell-based functional assay as described above and the data are shown in Table 2. The compound numbers correspond to the compound numbers used in Examples 1 and 2 and Tables 1 and 2.

[1] = tested on: catalepsy induced by the DA receptor antagonist haloperidol; test: haloperidol-induced catalepsy in mice; type: in vivo
Source text: Furthermore, haloperidol-induced catalepsy, a model of parkinsonian motor disability, is reduced in M4 knockout mice as compared to wild-type controls. […] The reversal by scopolamine was uncommonly robust and more pronounced than we observe with agents targeting a number of other targets being evaluated for potential antiparkinsonian effects, including metabotropic glutamate (mGlu) receptors mGlu4 or mGlu5, A2A adenosine receptors, and NMDA receptors. […] Taken together with the extensive studies of M4 modulation of basal ganglia and motor function, these studies provide compelling evidence that M4 is the dominant mAChR subtype involved in the antiparkinsonian effects of non-selective mAChR antagonists and provide support for discovery and development of selective M4 antagonists for treatment of neurodegenerative disease such as PD, dystonia, tardive dyskinesia and other movement disorders.

Row | SMILES | remaining activity at 30 µM (Human M4) [%] | IC50 (Human M4) [nM] | reduction of haloperidol-induced catalepsy ([1]; M4 KO mice) | reversal of haloperidol-induced catalepsy ([1]; WT mice)
1 | Cn1cc2cc(-c3ccc(N[C@H]4[C@@H]5CN(CC6CCOCC6)C[C@@H]54)nn3)ccc2n1 [Compound 18, (1R,5S,6s)-N-[6-(2-methylindazol-5-yl)pyridazin-3-yl]-3-(tetrahydropyran-4-ylmethyl)-3-azabicyclo[3.1.0]hexan-6-amine] | 27 | – | – | –
2 | CN1[C@@H]2C[C@@H](OC(=O)[C@H](CO)c3ccccc3)C[C@H]1[C@@H]1O[C@@H]12 [scopolamine] | – | – | ineffective | completely reversed
3 | Cc1nn(C)cc1-c1ccc(CN[C@H]2[C@@H]3CN(CC4CCCCC4)C[C@@H]32)nn1 [Compound 7, (1R,5S,6s)-3-(cyclohexylmethyl)-N-((6-(1,3-dimethylpyrazol-4-yl)pyridazin-3-yl)methyl)-3-azabicyclo[3.1.0]hexan-6-amine] | 32.5 | – | – | –
4 | c1cc(C2CC2)ncc1-c1ccc(N[C@H]2[C@@H]3CN(CC4CCOCC4)C[C@@H]32)nn1 [Compound 21, (1R,5S,6s)-N-[6-(6-cyclopropyl-3-pyridyl)pyridazin-3-yl]-3-(tetrahydropyran-4-ylmethyl)-3-azabicyclo[3.1.0]hexan-6-amine] | 30 | – | – | –
5 | Fc1ccc(Cl)c(-c2ccc(N[C@H]3[C@@H]4CN(Cc5ccccn5)C[C@@H]43)nn2)c1 [Compound 24, (1R,5S,6s)-N-[6-(2-chloro-5-fluoro-phenyl)pyridazin-3-yl]-3-(2-pyridylmethyl)-3-azabicyclo[3.1.0]hexan-6-amine] | 16 | 6770 | – | –
6 | CC(C)(C)CCN1C[C@@H]2[C@H](C1)[C@H]2NCc1ccc(-c2cc(F)ccc2Cl)nn1 [Compound 5, (1R,5S,6s)-N-((6-(2-chloro-5-fluoro-phenyl)pyridazin-3-yl)methyl)-3-(3,3-dimethylbutyl)-3-azabicyclo[3.1.0]hexan-6-amine] | 20.4 | – | – | –
7 | Fc1cccc(-c2ccc(N[C@H]3[C@@H]4CN(CC5CCOCC5)C[C@@H]43)nn2)c1Cl [Compound 13, (1R,5S,6s)-N-[6-(2-chloro-3-fluoro-phenyl)pyridazin-3-yl]-3-(tetrahydropyran-4-ylmethyl)-3-azabicyclo[3.1.0]hexan-6-amine] | 8 | 1850 | – | –
8 | Fc1cccc(Cl)c1-c1ccc(N[C@H]2[C@@H]3CN(CC4CCOCC4)C[C@@H]32)nn1 [Compound 15, (1R,5S,6s)-N-[6-(2-chloro-6-fluoro-phenyl)pyridazin-3-yl]-3-(tetrahydropyran-4-ylmethyl)-3-azabicyclo[3.1.0]hexan-6-amine] | 14 | 3180 | – | –
9 | Fc1ccc(Cl)c(-c2ccc(N[C@H]3[C@@H]4CN(CC5CCOCC5)C[C@@H]43)nn2)c1 [Compound 12, (1R,5S,6s)-N-[6-(2-chloro-5-fluoro-phenyl)pyridazin-3-yl]-3-(tetrahydropyran-4-ylmethyl)-3-azabicyclo[3.1.0]hexan-6-amine] | 8 | 1110 | – | –
10 | Cc1nn(C)cc1-c1ccc(N[C@H]2[C@@H]3CN(CC4CC5C=CC4C5)C[C@@H]32)nn1 (stereo partly drawn) [Compound 2, (1R,5S,6s)-3-(5-bicyclo[2.2.1]hept-2-enylmethyl)-N-[6-(1,3-dimethylpyrazol-4-yl)pyridazin-3-yl]-3-azabicyclo[3.1.0]hexan-6-amine] | 5 | 100 | – | –
11 | Fc1ccc(F)c(-c2ccc(N[C@H]3[C@@H]4CN(CC5CCOCC5)C[C@@H]43)nn2)c1 [Compound 16, (1R,5S,6s)-N-[6-(2,5-difluorophenyl)pyridazin-3-yl]-3-(tetrahydropyran-4-ylmethyl)-3-azabicyclo[3.1.0]hexan-6-amine] | 28 | – | – | –

Now from value to compound, other results behind:

Row | remaining activity at 30 µM (Human M4) [%] | IC50 (Human M4) [nM] | SMILES | reduction of haloperidol-induced catalepsy ([1]; M4 KO mice) | reversal of haloperidol-induced catalepsy ([1]; WT mice)
12 | 38 | – | Cc1cc(CN2C[C@@H]3[C@H](C2)[C@H]3Nc2ccc(-c3cc(F)ccc3F)nn2)nn1C [Compound 36, (1R,5S,6s)-N-[6-(2,5-difluorophenyl)pyridazin-3-yl]-3-[(1,5-dimethylpyrazol-3-yl)methyl]-3-azabicyclo[3.1.0]hexan-6-amine] | – | –
13 | 46 | – | Fc1ccc(F)c(-c2ccc(N[C@H]3[C@@H]4CN(Cc5ccccn5)C[C@@H]43)nn2)c1 [Compound 34, (1R,5S,6s)-N-[6-(2,5-difluorophenyl)pyridazin-3-yl]-3-(2-pyridylmethyl)-3-azabicyclo[3.1.0]hexan-6-amine] | – | –
14 | 4 | 25.5 | CC(C)(C)CCN1C[C@@H]2[C@H](C1)[C@H]2Nc1ccc(-c2cc(F)ccc2Cl)nn1 [Compound 27, (1R,5S,6s)-N-[6-(2-chloro-5-fluoro-phenyl)pyridazin-3-yl]-3-(3,3-dimethylbutyl)-3-azabicyclo[3.1.0]hexan-6-amine] | – | –
15 | 5 | 139 | Cn1cc2cc(-c3ccc(N[C@H]4[C@@H]5CN(CCC(C)(C)C)C[C@@H]54)nn3)ccc2n1 [Compound 39, (1R,5S,6s)-3-(3,3-dimethylbutyl)-N-[6-(2-methylindazol-5-yl)pyridazin-3-yl]-3-azabicyclo[3.1.0]hexan-6-amine] | – | –
16 | 36 | – | Fc1ccc(F)c(-c2ccc(N[C@H]3[C@@H]4CN(Cc5ccc6c(c5)OCO6)C[C@@H]43)nn2)c1 [Compound 35, (1R,5S,6s)-3-(1,3-benzodioxol-5-ylmethyl)-N-[6-(2,5-difluorophenyl)pyridazin-3-yl]-3-azabicyclo[3.1.0]hexan-6-amine] | – | –
17 | 27 | – | Fc1cccc(-c2ccc(N[C@H]3[C@@H]4CN(CC5CCOCC5)C[C@@H]43)nn2)c1F [Compound 31, (1R,5S,6s)-N-[6-(2,3-difluorophenyl)pyridazin-3-yl]-3-(tetrahydropyran-4-ylmethyl)-3-azabicyclo[3.1.0]hexan-6-amine] | – | –
18 | 13 | 4760 | Cc1cc(CN2C[C@@H]3[C@H](C2)[C@H]3Nc2ccc(-c3cc(F)ccc3Cl)nn2)nn1C [Compound 26, (1R,5S,6s)-N-[6-(2-chloro-5-fluoro-phenyl)pyridazin-3-yl]-3-[(1,5-dimethylpyrazol-3-yl)methyl]-3-azabicyclo[3.1.0]hexan-6-amine] | – | –
19 | 28 | – | c1ccc(-c2ccc(N[C@H]3[C@@H]4CN(CC5CCOCC5)C[C@@H]43)nn2)cc1 [Compound 28, (1R,5S,6s)-N-(6-phenylpyridazin-3yl)-3-(tetrahydropyran-4-ylmethyl)-3-azabicyclo[3.1.0]hexan-6-amine] | – | –
